# Values quoted from earlier work in publication PMC11478287, “Design and Synthesis of Pyridyl and 2-Hydroxyphenyl Chalcones with Antitubercular Activity” (Molecules, 2024).
# Tested on: PtpA
# Set-up: method as in PMID 18930396
# Conditions: cited from earlier work
smiles,measurement,value
COc1cc(C(=O)/C=C/c2ccc3c(c2)OCO3)cc(OC)c1OC [Compound 2],PtpA inhibition activity (in words),very low PtpA inhibition activity
